We go through 15 molecules from patent publication US20090042773A1, “P13 kinase gamma inhibitors for the treatment of anaemia” (priority 2004, published 2009).

In assay [1] the test system is Mobilized CD34 positive stem cells. The assay can be described thus: EPO induced erythrocyte formation (stem cell culture, colony assay, flow cytometry). The class given is cell-based. An excerpt:
b) EPO Induced Erythrocyte Formation:
Investigation of the effect of PI3K inhibitors on the differentiation of red cell population, but also on the expansion of undifferentiated stem cells. Two different culture systems. A and B, were explored.
Culture System A (Containing No IL-3):
Differentiation of bone-marrow derived stem cells into the red cell line only. Semi-optimal systems in respect of the expansion of colony forming units, because of the lack of IL3 and other early acting growth factors.
The culture conditions are: IMDM-culture medium, 30% pre-selected fetal calf serum, 1% BSA, Glutamine 40 ug/ml iron saturated transferin, 10−6 Mol Mercaptoethanol, 10 ng/ml SCF, 100 U/ml IL6, 7 U Epo.
Culture System B (Containing IL-3):
Colony forming unit assay. […]
Colony forming units and the expression of Glycophorin A (marker) on the cell surface were used as markers for stem cell erythropoesis. Additionally, the presence of the cell surface antigen CD34 was also monitored to assess the differentiation status of the in vitro expanded cell lineage.
Relative expansion rate of GlyA-positive cells: At day 0, the stage of differentiation only few, if any cells, are GlyA positive. […] The expansion rate is calculated as the absolute number of GlyA-positive cells at the time point of interest divided by the absolute number of GlyA-positive cells in the starting material.
(In general: In flow cytometry, cells or beads pass a laser one at a time.)

Assay [2] addresses Human recombinant GST-PI3Kγ (Homo sapiens, UniProt P48736).
In assay [3] the target is Human recombinant GST-PI3Kα (Homo sapiens, UniProt P42336).
In assay [4] the target is T1, Human recombinant GST-PI3Kδ (Homo sapiens, UniProt O00329).
T1 sequence (O00329 1-1044): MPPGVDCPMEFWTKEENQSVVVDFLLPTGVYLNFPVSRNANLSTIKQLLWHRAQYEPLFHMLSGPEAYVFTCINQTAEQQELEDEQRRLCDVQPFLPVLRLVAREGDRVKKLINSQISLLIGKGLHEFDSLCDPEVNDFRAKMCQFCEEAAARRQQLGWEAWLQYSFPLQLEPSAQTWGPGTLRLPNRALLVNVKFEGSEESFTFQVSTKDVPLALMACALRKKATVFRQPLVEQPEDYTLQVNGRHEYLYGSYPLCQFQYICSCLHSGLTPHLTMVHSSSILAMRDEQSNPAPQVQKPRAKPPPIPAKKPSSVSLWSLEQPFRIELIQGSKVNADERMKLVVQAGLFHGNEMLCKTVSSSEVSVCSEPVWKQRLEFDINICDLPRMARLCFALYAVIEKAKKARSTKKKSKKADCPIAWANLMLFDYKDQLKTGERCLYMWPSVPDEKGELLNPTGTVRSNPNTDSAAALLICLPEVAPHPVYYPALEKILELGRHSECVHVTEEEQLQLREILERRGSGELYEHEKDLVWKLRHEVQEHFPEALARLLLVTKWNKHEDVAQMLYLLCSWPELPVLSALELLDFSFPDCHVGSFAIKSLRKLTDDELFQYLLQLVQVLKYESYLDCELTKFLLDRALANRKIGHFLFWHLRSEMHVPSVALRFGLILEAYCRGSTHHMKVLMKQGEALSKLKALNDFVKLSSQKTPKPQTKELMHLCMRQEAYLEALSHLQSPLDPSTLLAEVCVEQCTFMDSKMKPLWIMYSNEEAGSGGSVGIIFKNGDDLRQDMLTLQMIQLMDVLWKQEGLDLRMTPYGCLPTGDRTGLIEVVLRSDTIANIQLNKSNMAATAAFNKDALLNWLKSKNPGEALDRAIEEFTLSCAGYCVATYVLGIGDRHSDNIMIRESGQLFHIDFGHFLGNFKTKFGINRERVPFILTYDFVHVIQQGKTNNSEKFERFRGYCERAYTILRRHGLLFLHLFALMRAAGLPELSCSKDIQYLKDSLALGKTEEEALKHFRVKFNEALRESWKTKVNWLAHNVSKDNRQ

The next assay concerns CD34+ progenitor cells. The following applies: Myklebust et al., Experimental Hematology 30 (2002), 990; cited from earlier work.
The test system of assay [5] is K562 erythroleukemia cells. The following applies: Neri et al., Cellular Signalling 14 (2002) 21; cited from earlier work.

Sequence of Human recombinant GST-PI3Kα (P42336 whole entry): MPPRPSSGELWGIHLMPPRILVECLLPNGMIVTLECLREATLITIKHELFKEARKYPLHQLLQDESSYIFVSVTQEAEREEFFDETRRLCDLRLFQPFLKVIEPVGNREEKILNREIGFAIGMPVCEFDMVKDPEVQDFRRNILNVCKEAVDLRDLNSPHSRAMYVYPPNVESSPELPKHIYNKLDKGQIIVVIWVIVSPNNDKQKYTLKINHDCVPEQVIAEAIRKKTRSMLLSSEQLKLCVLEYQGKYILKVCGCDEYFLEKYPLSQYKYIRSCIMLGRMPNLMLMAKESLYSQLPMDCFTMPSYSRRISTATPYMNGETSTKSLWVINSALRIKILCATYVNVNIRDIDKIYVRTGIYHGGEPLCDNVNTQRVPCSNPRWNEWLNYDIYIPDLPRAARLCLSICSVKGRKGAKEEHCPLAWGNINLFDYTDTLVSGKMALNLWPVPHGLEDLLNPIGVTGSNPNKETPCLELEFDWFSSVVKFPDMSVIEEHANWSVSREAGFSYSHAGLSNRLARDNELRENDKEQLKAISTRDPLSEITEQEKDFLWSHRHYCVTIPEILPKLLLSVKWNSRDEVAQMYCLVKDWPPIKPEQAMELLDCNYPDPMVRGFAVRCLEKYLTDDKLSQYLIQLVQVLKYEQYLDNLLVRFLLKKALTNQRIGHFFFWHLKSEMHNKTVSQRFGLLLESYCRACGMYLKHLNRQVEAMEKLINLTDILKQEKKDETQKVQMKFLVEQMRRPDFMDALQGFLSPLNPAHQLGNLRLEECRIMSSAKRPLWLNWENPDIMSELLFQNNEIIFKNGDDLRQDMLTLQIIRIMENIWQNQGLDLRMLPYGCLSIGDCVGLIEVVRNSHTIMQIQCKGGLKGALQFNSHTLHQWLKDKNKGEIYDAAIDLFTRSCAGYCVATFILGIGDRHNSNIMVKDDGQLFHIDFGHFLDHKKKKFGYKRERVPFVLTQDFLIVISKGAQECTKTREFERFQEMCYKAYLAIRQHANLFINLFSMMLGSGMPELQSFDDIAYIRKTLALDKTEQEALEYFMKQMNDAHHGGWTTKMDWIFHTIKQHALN
Sequence of Human recombinant GST-PI3Kγ (P48736 whole entry): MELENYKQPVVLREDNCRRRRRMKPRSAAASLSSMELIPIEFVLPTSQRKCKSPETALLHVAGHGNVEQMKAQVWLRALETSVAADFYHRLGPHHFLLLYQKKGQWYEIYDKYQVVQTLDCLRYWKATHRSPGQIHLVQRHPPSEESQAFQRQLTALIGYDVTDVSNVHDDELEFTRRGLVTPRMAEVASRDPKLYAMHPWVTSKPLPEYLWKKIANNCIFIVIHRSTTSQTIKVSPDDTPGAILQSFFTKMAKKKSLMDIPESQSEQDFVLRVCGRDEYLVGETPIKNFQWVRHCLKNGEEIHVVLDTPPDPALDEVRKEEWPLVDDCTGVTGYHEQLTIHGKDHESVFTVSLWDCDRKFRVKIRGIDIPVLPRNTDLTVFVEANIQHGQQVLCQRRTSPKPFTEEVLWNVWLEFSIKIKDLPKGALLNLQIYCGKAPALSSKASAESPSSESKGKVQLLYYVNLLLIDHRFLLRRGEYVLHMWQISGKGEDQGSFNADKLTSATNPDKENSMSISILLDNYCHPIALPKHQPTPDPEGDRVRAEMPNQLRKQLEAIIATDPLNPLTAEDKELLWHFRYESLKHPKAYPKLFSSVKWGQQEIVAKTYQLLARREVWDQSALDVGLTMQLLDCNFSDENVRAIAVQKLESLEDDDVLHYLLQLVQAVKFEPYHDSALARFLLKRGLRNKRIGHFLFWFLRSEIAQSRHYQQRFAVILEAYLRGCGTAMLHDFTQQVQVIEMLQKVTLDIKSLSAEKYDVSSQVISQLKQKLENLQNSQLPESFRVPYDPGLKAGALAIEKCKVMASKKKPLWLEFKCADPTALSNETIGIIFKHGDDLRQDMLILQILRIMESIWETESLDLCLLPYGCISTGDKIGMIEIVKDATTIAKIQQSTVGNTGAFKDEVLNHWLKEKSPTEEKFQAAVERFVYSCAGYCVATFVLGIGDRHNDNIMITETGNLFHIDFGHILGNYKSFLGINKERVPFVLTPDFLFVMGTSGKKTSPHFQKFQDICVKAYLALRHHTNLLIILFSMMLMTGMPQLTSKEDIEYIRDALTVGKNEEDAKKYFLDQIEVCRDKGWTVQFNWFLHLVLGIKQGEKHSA

What is called IC50 is the concentration needed to halve the response being measured. With `O=C1NC(=O)C(=Cc2ccc3c(c2)OCO3)S1` [Example 1, 5-(1,3-benzodioxol-5-ylmethylene)-1,3-thiazolidine-2,4-dione], the “increase of the expansion of nucleated cells over the control” value in assay [1] (in 13 days, compound added at day 1) was determined as 4 fold. In addition, the cell proliferation result in assay [1] (same culture, 13 days) is listed as “not enhanced”. Also, the half-inhibitory concentration (IC50) was determined as 70 nM in assay [2], 250 nM in assay [3] and 1700 nM in assay [4].

For `O=C1NC(=S)SC1=Cc1ccc2c(c1)OCO2` [Example 2, 5-(1,3-benzodioxol-5-ylmethylene)-2-thioxo-1,3-thiazolidin-4-one], the results for the half-inhibitory concentration (IC50) in assay [2] and in assay [3] were 115 nM and 450 nM, respectively.

On to `O=C1NC(=O)C(=Cc2ccc3c(c2)OCCO3)S1` [Example 3, 5-(2,3-dihydro-1,4-benzodioxin-6-ylmethylene)-1,3-thiazolidine-2,4-dione], for which the 50% inhibitory concentration (IC50) is 50 nM in assay [2] and 310 nM in assay [3].

Consider `O=C1NC(=O)C(=Cc2ccc3c(c2)C(=O)c2ccccc2C3=O)S1` [Example 4, 5-[(9,10-dioxo-9,10-dihydroanthracen-2-yl)methylene]-1,3-thiazolidine-2,4-dione], for which the values for the concentration for half-maximal inhibition (IC50) in assay [2], in assay [3] and in assay [4] were 316 nM, 1370 nM and 4870 nM, respectively.

For the molecule `CN1C(=O)COc2ccc(C=C3SC(=O)NC3=O)cc21` [Example 6, 5-[(4-methyl-3-oxo-3,4-dihydro-2H-1,4-benzoxazin-6-yl)methylene]-1,3-thiazolidine-2,4-dione], the values for the IC50 in assay [2] and in assay [3] were 30 nM and 170 nM, respectively.

As to `N=C1NC(=O)C(=Cc2ccc3c(c2)OCO3)S1` [Example 7, 5-(1,3-benzodioxol-5-ylmethylene)-2-imino-1,3-thiazolidin-4-one], the 50% inhibitory concentration (IC50) in assay [2] was found to be 710 nM.

As for `Cc1coc2ccc(C=C3SC(=O)NC3=O)cc12` [Example 8, 5-(3-Methyl-benzofuran-5-ylmethylene)-thiazolidine-2,4-dione], the half-maximal inhibitory concentration (IC50) in assay [2] was determined as 30 nM; in assay [3], 135 nM; in assay [4] it was 1970 nM.

As for `O=C(O)C=Cc1coc2ccc(C=C3SC(=O)NC3=O)cc12` [Example 9, 3-[5-(2,4-Dioxo-thiazolidin-5-ylidenemethyl)benzofuran-3-yl]-acrylic acid], the IC50 in assay [2] was 8 nM; in assay [3], 32 nM; in assay [4], 2480 nM.

Take `O=C1NC(=O)C(=Cc2ccc3c(c2)NCCO3)S1` [Example 10, 5-(3,4-Dihydro-2H-benzo[1,4]oxazin-6-ylmethylene)-thiazolidine-2,4-dione]: the results for the 50% inhibitory concentration (IC50) in assay [2] and in assay [3] were 590 nM and 2100 nM, respectively.

Take `Nc1noc2ccc(C=C3SC(=O)NC3=O)cc12` [Example 11, 5-(3-Amino-benzo[d]isoxazol-5-ylmethylene)thiazolidine-2,4-dione]: the 50% inhibitory concentration (IC50) in assay [2] came to 95 nM; in assay [3], 460 nM; in assay [4] it was 10000 nM.

In the case of `O=C1NC(=O)C(=Cc2ccc3nonc3c2)S1` [Example 12, 5-Benzo[1,2,5]oxadiazol-5-ylmethylene-thiazolidine-2,4-ione], the 50% inhibitory concentration (IC50) in assay [2] is 35 nM; in assay [3] it was 370 nM; in assay [4], 2730 nM.

Turning to `O=C1NC(=O)C(=Cc2ccc3cc(F)oc3c2)S1` [Example 13, 5-(2-Fluoro-benzofuran-6-ylmethylene)-thiazolidine-2,4-dione], the IC50 in assay [2] is 290 nM; in assay [3] it was 1200 nM.

As to `N#CN=C1NC(=O)C(=Cc2ccc3c(c2)OCO3)S1` [Example 14, 5-Benzo[1,3]dioxol-5-ylmethylene-4-oxo-thiazolidin-2-ylidene-cyanamide], the IC50 came out at 21 nM in assay [2], 231 nM in assay [3] and 1170 nM in assay [4].

Consider `O=c1cc(N2CCOCC2)oc2c(-c3ccccc3)cccc12` [LY294002], for which the “effect on EPO induced erythropoiesis from CD34+ progenitor cells” value in the assay with CD34+ progenitor cells is listed as “inhibit EPO induced erythropoiesis”.

For the molecule `COC[C@H]1OC(=O)c2coc3c2[C@@]1(C)C1=C(C3=O)[C@@H]2CCC(=O)[C@@]2(C)C[C@H]1OC(C)=O` [Wortmannin, wortmannin], the “effect on EPO induced erythroid differentiation of K562 cells” value in assay [5] is listed as “prevents K562 erythroleukemia cells from EPO induced erythroid differentiation”.
